Data: patent US12478623B2 (INTRA-CELLULAR THERAPIES, INC., priority 2019, dated 2025)

Legend:
schizophrenic patients = conditions: cited from earlier work
[1] = test system: pyramidal cells in rat mPFC slices; conditions: lumateperone alone; cited from earlier work
Male Wistar rats = assay: Conditioned avoidance response (CAR) test, Example 1; type: in vivo, rat; conditions: for Suppression of CAR: 20 minutes; for Treatment effect in CAR: FIG. 2
[2] = test system: mTOR pathway, including protein kinase Akt and p70S6 kinase; conditions: cited from earlier work
social defeat model = conditions: in vivo; cited from earlier work
[3] = test system: patients with acute exacerbated schizophrenia; conditions: 60 mg P.O. once daily for up to 28 days, vs placebo; cited from earlier work
[4] = schizophrenia with co-morbid depression

Row | SMILES | Depressive symptoms (schizophrenic patients; [4]) | Safety profile (schizophrenic patients; [4]) | Social functioning, positive and negative symptoms, cognition (schizophrenic patients; schizophrenic patients, at a low striatal D2 receptor occupancy) | NMDA and AMPA receptor-induced currents [1] | Suppression of CAR (Male Wistar rats; lumateperone 7 mg/kg i.p. (saline), vs vehicle/saline, FIG. 3) | CAR, comparison between groups (Male Wistar rats; lumateperone 7 mg/kg, 90 minutes, vs lumateperone 3 mg/kg/saline, FIG. 4) | Suppression of CAR (Male Wistar rats; lumateperone tosylate 3 mg/kg i.p., vs vehicle, FIG. 1) | Suppression of CAR (Male Wistar rats; lumateperone tosylate 10 mg/kg i.p., vs vehicle, FIG. 1) | Treatment effect in CAR (Male Wistar rats; lumateperone tosylate 10 mg/kg i.p., 90 minutes) | Phosphorylation of mTOR pathway proteins [2] | Effect in the social defeat model (social defeat model) | Symptoms of emotional experience [3] | Suppression of CAR (Male Wistar rats; risperidone 0.4 mg/kg i.p., vs vehicle, FIG. 1) | Treatment effect in CAR (Male Wistar rats; risperidone 0.4 mg/kg i.p., 90 minutes)
1 | CN1CCN2c3c(cccc31)[C@@H]1CN(CCCC(=O)c3ccc(F)cc3)CC[C@@H]12 [lumateperone, 4-((6bR,10aS)-3-methyl-2,3,6b,9,10,10a-hexahydro-1H-pyrido[3′,4′: 4,5]pyrrolo[1,2,3-de]quinoxalin-8(7H)-yl)-1-(4-fluorophenyl)-1-butanone] | improves the depressive symptoms | placebo-level safety profile and no metabolic changes or extra-pyramidal side effects | significantly improve social functioning, positive and negative symptoms, as well as impaired cognition | activates both NMDA and AMPA receptor-induced currents | significantly suppressed CAR compared to vehicle/saline | significantly different than lumateperone (3 mg/kg)/saline | significantly suppressed CAR compared to vehicle | significantly suppressed CAR compared to vehicle | significant treatment effect | increases phosphorylation of key proteins in the mTOR pathway | antidepressant-like effects | significant and unexpected improvement in symptoms of emotional experience compared to placebo |  | 
2 | Cc1nc2n(c(=O)c1CCN1CCC(c3noc4cc(F)ccc34)CC1)CCCC2 [risperidone] |  |  |  |  |  |  |  |  |  |  |  |  | significantly suppressed CAR compared to vehicle | not for the other doses or for risperidone
